Test results reported in patent US20140081025A1, “HETEROAROMATIC RING DERIVATIVE” (TAISHO PHARMACEUTICAL CO., LTD., priority 2011, published 2014).

Columns and labels:
[1] = molecular target: T1, human orexin 1 receptor (hOX1R) (Homo sapiens, UniProt O43613); test: Measurement of orexin antagonist activity (intracellular Ca2+ fluorescence, FDSS) in CHO cells expressing hOX1R; assay type: cell-based; details: CHO cells forcibly expressing hOX1R; ligand (two-amino-acid-substituted human orexin-A) 300 pM; Fluo 4-AM; read-out: IC50 value OX1
T1 construct: expressed in transfected cells; host or cells: Chinese hamster ovary (CHO) cells
T1 sequence (O43613 1-425): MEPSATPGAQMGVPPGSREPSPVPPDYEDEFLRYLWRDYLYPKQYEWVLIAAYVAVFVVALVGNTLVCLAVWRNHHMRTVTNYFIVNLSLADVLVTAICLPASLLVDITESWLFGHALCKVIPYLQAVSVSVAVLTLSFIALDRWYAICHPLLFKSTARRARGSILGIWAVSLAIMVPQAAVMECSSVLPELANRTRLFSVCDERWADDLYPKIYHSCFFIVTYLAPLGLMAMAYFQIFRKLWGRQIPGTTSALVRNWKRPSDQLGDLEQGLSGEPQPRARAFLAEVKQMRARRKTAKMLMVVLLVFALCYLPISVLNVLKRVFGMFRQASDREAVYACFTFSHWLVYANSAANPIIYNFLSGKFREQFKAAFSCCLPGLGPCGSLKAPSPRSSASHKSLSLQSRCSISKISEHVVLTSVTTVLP
Experimental: (§1) The antagonist activity of a test compound against the human orexin 1 receptor (hOX1R) or orexin 2 receptor (hOX2R) was measured by the method described in the document (Toshikatsu Okumura et al., Biochemical and Biophysical Research Communications, 280, 976-981, 2001) with appropriate modification. Chinese hamster ovary (CHO) cells forcibly expressing hOX1R or hOX2R were seeded into each well of a 96-well Black clear bottom plate (Nunc A/S) in the amount of 20000 cells per well and were cultured in a Ham's F-12 medium (Invitrogen, Inc.) containing 0.1 mM MEM non-essential amino acids (Invitrogen, Inc.), 0.5 mg/mL G418 (Invitrogen, Inc.), and 10% fetal calf serum (Invitrogen, Inc.) at 37° C. in 5% CO2 for 16 hours. The medium was removed, and then added to each well was 100 μL of an assay buffer (pH 7.4) containing 0.5 μM Fluo 4-AM ester (Dojindo Laboratories), wherein the buffer was composed of 25 mM HEPES (Dojindo Laboratories), a Hanks' balanced salt solution (Invitrogen, Inc.), 0.1% bovine serum albumin (Sigma-Aldrich Co., LLC.), 2.5 mM probenecid (Sigma-Aldrich Co., LLC.), and 200 μg/mL Amaranth (Sigma-Aldrich Co., LLC.), followed by incubation at 37° C. in 5% CO2 for 60 min. The assay buffer containing Fluo 4-AM ester was removed, and then 150 μL of an assay buffer solution containing 10 mM of the test compound dissolved in dimethyl sulfoxide was added to each well, followed by incubation for 30 min.
(§2) A peptide (Pyr-[…]NH2: Peptide Institute, Inc.), which is a ligand having substitution of two amino acids in human orexin-A, was diluted with an assay buffer to a final concentration of 300 pM for hOX1R and to a final concentration of 3 nM for hOX2R. The reaction was started by adding 50 μL of this ligand solution to each well. The reaction was monitored by measuring the fluorescence of each well at each 1 second for 3 min with a Functional Drug Screening System (FDSS manufactured by Hamamatsu Photonics K.K.), and the antagonist activity was determined based on the maximum fluorescence value as an index of the intracellular Ca^2+ concentration. The antagonist activity of a test compound was calculated by assuming that the fluorescence value of the well containing only a dilution buffer was 100% and that the fluorescence value of the well containing a buffer not containing the ligand or any test compound was 0%. The 50% inhibitory concentration (IC50 value) of a test compound was determined from fluorescence values at various concentrations of the test compound.

[2] = molecular target: T2, human orexin 2 receptor (hOX2R) (Homo sapiens, UniProt O43614); test: Measurement of orexin antagonist activity (intracellular Ca2+ fluorescence, FDSS) in CHO cells expressing hOX2R; assay type: cell-based; details: CHO cells forcibly expressing hOX2R; ligand (two-amino-acid-substituted human orexin-A) 3 nM; Fluo 4-AM; read-out: IC50 value OX2
T2 construct: expressed in transfected cells; host or cells: Chinese hamster ovary (CHO) cells
T2 sequence (O43614 1-444): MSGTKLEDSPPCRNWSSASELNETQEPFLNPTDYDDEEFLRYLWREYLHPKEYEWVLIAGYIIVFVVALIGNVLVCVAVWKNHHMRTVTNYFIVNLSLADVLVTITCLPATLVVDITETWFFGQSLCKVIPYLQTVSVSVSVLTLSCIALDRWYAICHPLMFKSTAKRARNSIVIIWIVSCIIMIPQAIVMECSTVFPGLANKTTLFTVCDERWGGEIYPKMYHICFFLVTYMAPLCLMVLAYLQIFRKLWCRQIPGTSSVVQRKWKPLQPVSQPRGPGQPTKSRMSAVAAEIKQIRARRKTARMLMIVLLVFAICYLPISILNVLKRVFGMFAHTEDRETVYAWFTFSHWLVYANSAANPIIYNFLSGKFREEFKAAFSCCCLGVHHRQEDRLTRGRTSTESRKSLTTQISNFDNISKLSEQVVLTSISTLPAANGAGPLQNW
Experimental: as §1, §2

Row | Structure (SMILES) | IC50 [1] [nM] | IC50 [2] [nM]
1 | CCN(CCc1ccn(-c2cccc(C(F)(F)F)n2)n1)C(=O)c1ccccc1-n1nccn1 [Example 24, N-ethyl-2-(2H-1,2,3-triazol-2-yl)-N-(2-{1-[6-(trifluoromethyl)pyridin-2-yl]-1H-pyrazol-3-yl}ethyl)benzamide] | 17.8 | 24.8
2 | Cc1ccc(-n2nccn2)c(C(=O)N(C)CCc2noc(-c3ccc(F)cc3)n2)c1 [Example 35, N-{2-[5-(4-fluorophenyl)-1,2,4-oxadiazol-3-yl]ethyl}-N,5-dimethyl-2-(2H-1,2,3-triazol-2-yl) benzamide] | 2.4 | 13.9
3 | CCN(CCc1ccn(-c2cc(C(F)(F)F)ccn2)n1)C(=O)c1ccccc1-n1nccn1 [Example 26, N-ethyl-2-(2H-1,2,3-triazol-2-yl)-N-{2-{1-[4-(trifluoromethyl)pyridin-2-yl]-1H-pyrazol-3-yl}ethyl}benzamide] | 61.1 | 380
4 | CN(CCc1noc(-c2ccc(F)cn2)n1)C(=O)c1ccccc1-n1nccn1 [Example 33, N-{2-[5-(5-fluoropyridin-2-yl)-1,2,4-oxadiazol-3-yl]ethyl}-N-methyl-2-(2H-1,2,3-triazol-2-yl) benzamide] | 1190 | 2530
5 | CCN(CCc1ccn(-c2ccc(F)cn2)n1)C(=O)c1c(F)cccc1-n1nccn1 [Example 18, N-ethyl-2-fluoro-N-{2-[1-(5-fluoropyridin-2-yl)-1H-pyrazol-3-yl]ethyl}-2-(2H-1,2,3-triazol-2-yl) benzamide] | 1.6 | 6.3
6 | CCN(CCc1noc(-c2ccc(F)c(F)c2)n1)C(=O)c1cc(F)ccc1-c1ncccn1 [Example 43, N-{2-[5-(3,4-difluorophenyl)-1,2,4-oxadiazol-3-yl]ethyl}-N-ethyl-5-fluoro-2-(pyrimidin-2-yl) benzamide] | 61 | 69.8
7 | CN(CCc1ccn(-c2ccc(F)cn2)n1)C(=O)c1cc(Cl)ccc1-n1nccn1 [Example 16, 5-Chloro-N-{2-[1-(5-fluoropyridin-2-yl)-1H-pyrazol-3-yl]ethyl}-N-methyl-2-(2H-1,2,3-triazol-2-yl)benzamide] | 3.3 | 30.5
8 | CCN(CCc1ccn(-c2ccc(F)cn2)n1)C(=O)c1cc(F)ccc1-c1ncccn1 [Example 20, N-ethyl-5-fluoro-N-{2-[1-(5-fluoropyridin-2-yl)-1H-pyrazol-3-yl]ethyl}-2-(pyrimidin-2-yl) benzamide] | 1.7 | 13.2
9 | CCN(CCc1ccn(-c2ccc(F)cn2)n1)C(=O)c1cc(C)ccc1-n1nccn1 [Example 8, N-Ethyl-N-{2-[1-(5-fluoropyridin-2-yl)-1H-pyrazol-3-yl]ethyl}-5-methyl-2-(2H-1,2,3-triazol-2-yl)benzamide] | 1.8 | 3.8
10 | CCN(CCc1ccn(-c2ccc(F)cn2)n1)C(=O)c1ccc(F)cc1-n1nccn1 [Example 17, N-Ethyl-4-fluoro-N-{2-[1-(5-fluoropyridin-2-yl)-1H-pyrazol-3-yl]ethyl}-2-(2H-1,2,3-triazol-2-yl)benzamide] | 0.4 | 2.8
11 | CCN(CCc1noc(-c2ccc(F)cn2)n1)C(=O)c1ccccc1-n1nccn1 [Example 44, N-ethyl-N-{2-[5-(5-fluoropyridin-2-yl)-1,2,4-oxadiazol-3-yl]ethyl}-2-(2H-1,2,3-triazol-2-yl) benzamide] | 791 | 613
12 | CCN(CCc1ccn(-c2ccc(F)cn2)n1)C(=O)c1ccccc1-n1nccn1 [Example 4, N-Ethyl-N-{2-[1-(5-fluoropyridin-2-yl)-1H-pyrazol-3-yl]ethyl}-2-(2H-1,2,3-triazol-2-yl)benzamide] | 0.5 | 2.4

Now from value to molecule:

Row | IC50 [1] [nM] | IC50 [2] [nM] | Structure (SMILES)
13 | 8.9 | 3.4 | CCN(CCc1cn(-c2ccc(F)cn2)cn1)C(=O)c1cc(C)ccc1-n1nccn1 [Example 13, N-Ethyl-N-{2-[1-(5-fluoropyridin-2-yl)-1H-imidazol-4-yl]ethyl}-5-methyl-2-(2H-1,2,3-triazol-2-yl)benzamide]
14 | 1.1 | 2 | CCN(CCc1noc(-c2ccc(F)c(F)c2)n1)C(=O)c1cc(C)ccc1-n1nccn1 [Example 37, N-ethyl-N-{2-[5-(3,4-difluorophenyl)-1,2,4-oxadiazol-3-yl]ethyl}-5-methyl-2-(2H-1,2,3-triazol-2-yl)benzamide]
15 | 1.1 | 18.4 | CCN(CCc1ccn(-c2ccc(F)cc2)n1)C(=O)c1cc(F)ccc1-c1ncccn1 [Example 27, N-ethyl-5-fluoro-N-{2-[1-(4-fluorophenyl)-1H-pyrazol-3-yl]ethyl}-2-(pyrimidin-2-yl) benzamide]
16 | 0.7 | 8.5 | Cc1ccc(-n2nccn2)c(C(=O)N(C)CCc2cnn(-c3ccc(F)cn3)c2)c1 [Example 2, N-{2-[1-(5-Fluoropyridin-2-yl)-1H-pyrazol-4-yl]ethyl}-N,5-dimethyl-2-(2H-1,2,3-triazol-2-yl)benzamide]
17 | 17 | 26.4 | CCN(CCc1cc(-c2ccc(F)cn2)no1)C(=O)c1cc(C)ccc1-n1nccn1 [Example 11, N-Ethyl-N-{2-[3-(5-fluoropyridin-2-yl)-1,2-oxazol-5-yl]ethyl}-5-methyl-2-(2H-1,2,3-triazol-2-yl)benzamide]
18 | 10 | 132 | CN(CCc1ccn(-c2ccc(F)cn2)n1)C(=O)c1ccccc1-n1nccn1 [Example 14, N-{2-[1-(5-Fluoropyridin-2-yl)-1H-pyrazol-3-yl]ethyl}-N-methyl-2-(2H-1,2,3-triazol-2-yl)benzamide]
19 | 11.6 | 114 | CN(CCc1noc(-c2ccc(F)cc2)n1)C(=O)c1ccccc1-n1nccn1 [Example 31, N-{2-[5-(4-Fluorophenyl)1,2,4-oxadiazol-3-yl]ethyl}-N-methyl-2-(2H-1,2,3-triazol-2-yl)benzamide]
20 | 8.1 | 81.1 | CCN(CCc1ccn(-c2cccc(C)n2)n1)C(=O)c1cc(F)ccc1-c1ncccn1 [Example 28, N-ethyl-5-fluoro-N-{2-[1-(6-methylpyridin-2-yl)-1H-pyrazol-3-yl]ethyl}-2-(pyrimidin-2-yl) benzamide]
21 | 0.9 | 7.4 | CCN(CCc1ccn(-c2ccc(F)cn2)n1)C(=O)c1ccccc1-c1ncccn1 [Example 19, N-ethyl-N-{2-[1-(5-fluoropyridin-2-yl)-1H-pyrazol-3-yl]ethyl}-2-(pyrimidin-2-yl) benzamide]
22 | 16.7 | 77.4 | Cc1ccc(-n2nccn2)c(C(=O)N(C)CCc2cc(-c3ccc(F)cn3)on2)c1 [Example 9, N-{2-[5-(5-Fluoropyridin-2-yl)-1,2-oxazol-3-yl]ethyl}-N,5-dimethyl-2-(2H-1,2,3-triazol-2-yl)benzamide]
